Patent publication US20030055065A1, “Tricyclic amide and urea compounds useful for inhibition of G-protein function and for treatment of proliferative diseases” (priority 1993, published 2003)
“And” between values parts separate entries of the source, which are not always exact repeats. Equal values may be shown once. Read-outs that look alike come from different tables or passages of the source.

Assays:
[1] = test system: Ras-CVLS processing in COS monkey kidney cells; experiment: COS cell assay: Ras-CVLS processing (Western blot); format: cell-based; details: COS cells; for IC50: read-out: Inhibition of Ras Processing IC50
Protocol: 2. […] Effect of farnesyl protein transferase inhibitors on Ras processing and on disordered cell growth induced by transforming Ras. COS monkey kidney cells were transfected by electroporation with the plasmid pSV-SPORT (Gibco/BRL) containing a cDNA insert encoding either Ras-CVLS or Ras-CVLL, leading to transient overexpression of a Ras substrate for either farnesyl protein transferase or geranylgeranyl protein transferase I, respectively (see above). […] After 24 hours, media was removed and fresh media containing the appropriate drugs was re-added. 48 hours after electroporation cells were examined under the microscope to monitor disordered cell growth induced by transforming Ras. Cells expressing transforming Ras become more rounded and refractile and overgrow the monolayer, reminiscent of the transformed phenotype. […] Cells were lysed by homogenization and cell debris was removed by centrifugation at 2000×g for 10 min. Cellular protein was precipitated by addition of ice-cold trichloroacetic acid and redissolved in 100 μl of SDS-electrophoresis sample buffer. […] Proteins resolved on the gels were electroblotted onto nitrocellulose membranes for immunodetection. […] E., et al., (1982), Monoclonal antibodies to the p21 products of the transforming gene of Harvey murine sarcome virus and of the cellular ras gene family, J. Virol. 43: 294-304), in PBS containing 1% fetal calf serum for one hour at room temperature. After washing, membranes were incubated for one hour at room temperature with a 1:5000 dilution of secondary antibody, rabbit anti-rat IgG conjugated to horseradish peroxidase, in PBS containing 1% fetal calf serum.

[2] = test system: T24-BAG4 human bladder carcinoma cells expressing an activated H-ras gene; experiment: Cell Mat Assay: tumor cell colony inhibition (tIC50); format: cell-based; details: inhibition of tumor cell growth
Protocol: (§1) Compound-induced colony inhibition was assayed by addition of serial dilutions of compound directly to the growth medium 24 h after tumor cell planting, and incubating cells for an additional 14 d to allow colony formation. Assays were terminated by rinsing monolayers twice with phosphate-buffered saline (PBS), fixing the monolayers with a 1% glutaraldehyde solution in PBS, then visualizing tumor cells by staining with X-Gal (Price, J., et al., Lineage analysis in the vertebrate nervous system by retrovirus-mediated gene transfer, Proc. Natl. Acad. Sci.84, 156-160(1987)). […] Both IC50 values were obtained by determining the density of tumor cells and mat cells by visual inspection and enumeration of cells per colony and the number of colonies under the microscope.

[3] = target: T1, farnesyl protein transferase (FPT), partially purified from rat brain (Rattus norvegicus, UniProt Q02293+Q04631); experiment: Inhibition of farnesyl protein transferase (transfer of [3H]farnesyl to Ras-CVLS); format: biochemical; details: read-out: FPT IC50
T1 construct: were partially purified from rat brain by ammonium sulfate fractionation followed by Q-Sepharose
T1 sequence (Q02293 whole entry, one chain of several): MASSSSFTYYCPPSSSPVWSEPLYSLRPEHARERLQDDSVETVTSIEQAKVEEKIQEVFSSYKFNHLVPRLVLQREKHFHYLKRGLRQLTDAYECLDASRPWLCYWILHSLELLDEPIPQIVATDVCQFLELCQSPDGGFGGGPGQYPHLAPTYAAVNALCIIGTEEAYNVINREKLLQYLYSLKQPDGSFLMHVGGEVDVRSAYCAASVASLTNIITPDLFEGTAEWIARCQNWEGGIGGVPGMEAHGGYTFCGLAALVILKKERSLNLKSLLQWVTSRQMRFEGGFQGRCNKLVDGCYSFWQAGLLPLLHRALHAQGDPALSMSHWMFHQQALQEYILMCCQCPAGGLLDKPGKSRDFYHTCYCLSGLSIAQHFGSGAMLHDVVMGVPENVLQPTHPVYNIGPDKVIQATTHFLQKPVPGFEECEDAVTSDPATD
Procedure, shortened: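 Transfer of [3H]farnesyl onto E. coli-expressed, His6-tagged Ras-CVLS was measured after 30 min at room temperature. Radiolabelled Ras was TCA-precipitated on ice and filter-harvested, and inhibition was expressed as percent of DMSO control.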

[4] = test system: Normal human HEPM fibroblasts; experiment: Cell Mat Assay: density of mat cells (mIC50); format: cell-based
Protocol: as §1

[5] = Ras-CVLS farnesylation, partially purified rat brain FPT

IC50 ([2]; Homo sapiens) [µM]	IC50 [3, 5]	IC50 ([3]; enzyme inhibition)	IC50 [2] [µM]	SMILES	IC50 ([1]; Primates, COS) [µM]	IC50 ([4]; Homo sapiens, Fibroblast) [µM]	IC50 [1] [µM]	IC50 [4] [µM]	IC50 ([1]; listed as 285 (5.153)) [µM]	Toxicity in COS cells at the concentration in parentheses ([1]; (10) μM)
12.5	1.6 µM			CC(=O)N1CCC(CC(=O)N2CCN([C@H]3c4ccc(Cl)cc4CCc4cccnc43)CC2)CC1 [225 (5.99)]	6.2	> 50				
> 3.1		0.45 µM		CN1CCC(CC(=O)N2CCN(C3c4ccc(Cl)cc4CCc4c(Cl)ccnc43)CC2)CC1 (stereo not drawn) [Example 425-P]	5.7	3.1				
37	0.46 µM			O=C(Nc1cccnc1)N1CCN([C@H]2c3ccc(Cl)cc3CCc3cccnc32)CC1 [224 (6.11)]	7.3	> 50				
< 3.1	1.19 µM			CN1CCCC(CC(=O)N2CCN(C3c4ccc(Cl)cc4CCc4cccnc43)CC2)C1 (stereo not drawn) [Example 206]	2.4	16				
	5 µM		6.25	O=C(Nc1cccnc1)N1CCC(C2c3ccccc3CCc3cccnc32)CC1 (stereo not drawn) [Example 365]			3.1	> 50		
12.5	1.77 µM			O=C(Cc1cccnc1)N1CCC(=C2c3ccc(Cl)cc3C=Cc3cccnc32)CC1 [Example 276]	2.9	50				
6.25		0.32 µM		O=C(Cc1ccncc1)N1CCC(C2c3ccc(Cl)cc3C=Cc3cc([N+](=O)[O-])cnc32)CC1 (stereo not drawn) [Example 411-B]	1.8	> 25				
50	1.14 µM			O=C(Cc1ccncc1)N1CCC(=C2c3ccccc3CCc3ccccc32)CC1 [Example 87]	12.7	> 50				
10	0.48 µM and 0.55 µM			O=C1Cc2cccnc2C(=C2CCN(C(=O)Cc3cccnc3)CC2)c2ccc(Cl)cc21 [Example 283]	5.6	> 50				
	4 µM		3.1	O=C(Nc1ccncc1)N1CCC(C2c3ccccc3CCc3cccnc32)CC1 (stereo not drawn) [Example 366]			3.3	> 50		
< 1.6	0.095 µM and 0.09 µM	0.095 µM and 0.09 µM	< 0.8	O=C(Cc1cc[n+]([O-])cc1)N1CCC(=C2c3ccc(Cl)cc3CCc3cc(Br)cnc32)CC1 [Example 400-L]	0.6	> 25	0.65	> 12.5		
	0.19 µM		18	O=C(Cc1ccncc1)N1CCC(=C2c3ccc(Cl)cc3CCc3c(Cl)ccnc32)CC1 [248 (5.123)]			4.6	> 50		
4	2.9 µM			O=C1Cc2cc(Cl)ccc2C(=C2CCN(C(=O)Cc3ccncc3)CC2)c2ncccc21 [Example 281]	7	> 50				
3.1	1.4 µM			CN1CCC(CC(=O)N2CCN(C3c4ccc(Cl)cc4CCc4cccnc43)CC2)CC1 (stereo not drawn) [Example 201]	0.93	12.5				
	3.3 µM		6.25	O=C(Nc1ccccc1)N1CCC(C2c3ccccc3CCc3cccnc32)CC1 (stereo not drawn) [Example 367]			6.2	> 50		
18	2.11 µM			O=C(Nc1ccccn1)N1CCC(=C2c3ccc(Cl)cc3CCc3cccnc32)CC1 [Example 294]	5.2	> 50	2.8			
6.3	1.8 µM			CC(=O)N1CCC(C(=O)N2CCC(=C3c4ccc(Cl)cc4CCc4cccnc43)CC2)CC1 [Example 89]	6.3	> 25				
18	1.2 µM			O=C(Cc1ccncc1)N1CCC(=C2c3ccc(Cl)cc3CCc3ccc(Cl)nc32)CC1 [248 (5.124)]	2.05	> 50				

IC50 ([2]; Homo sapiens) [µM]	IC50 [3, 5]	IC50 ([3]; enzyme inhibition)	IC50 [2] [µM]	SMILES	IC50 ([1]; Primates, COS) [µM]	IC50 ([4]; Homo sapiens, Fibroblast) [µM]	IC50 [1] [µM]	IC50 [4] [µM]	IC50 ([1]; listed as 285 (5.153)) [µM]	Toxicity in COS cells at the concentration in parentheses ([1]; (10) μM)
10				O=C(Cc1cccnc1)N1CC=C(C2c3ccc(Cl)cc3CCc3cccnc32)CC1 (stereo not drawn) [Example 410-D]	18.5	> 50				
1.6	0.74 µM and 0.38 µM			CC(C)(C(=O)N1CCN(C2c3ccc(Cl)cc3CCc3cc(Br)cnc32)CC1)c1ccc[n+]([O-])c1 (stereo not drawn) [Example 352]	2.2	> 25				
< 3.1	0.96 µM			CC(C)(C(=O)N1CCC(=C2c3ccc(Cl)cc3CCc3cccnc32)CC1)c1cccnc1 [Example 300]	2.6	> 50				
25	1.5 µM			O=C(Cc1ccncc1)N1CCC(=C2c3ccc(Cl)cc3C(O)Cc3cccnc32)CC1 (stereo not drawn) [Example 286]	8.3	> 50				
6.25		0.7 µM	4	O=C(Cc1ccc[n+]([O-])c1)N1CCC(=C2c3ccc(Cl)cc3CCc3cc(Br)cnc32)CC1 [Example 411-G]	5.1	> 25		> 12.5		
8		0.62 µM		CC(C)(C(=O)N1CCC(=C2c3ccc(Cl)cc3CCc3cc(Br)cnc32)CC1)c1cc[n+]([O-])cc1 [Example 411-D]	1.6	> 25				
12.5	0.76 µM			O=C1Cc2cccnc2C(=C2CCN(C(=O)Cc3ccncc3)CC2)c2ccc(Cl)cc21 [Example 285]	5.2	> 50			10.1	
25		1.85 µM		O=C1Cc2cccnc2C(=C2CCN(C(=O)Cc3cc[n+]([O-])cc3)CC2)c2ccc(Cl)cc21 [Example 418]	> 10	> 25				
3.1	0.16 µM and 0.36 µM			O=C(Cc1ccncc1)N1CCC(C2c3ccc(Cl)cc3CCc3cccnc32)CC1 (stereo not drawn) [Example 82, 4-(8-chloro-6,11-dihydro-5H-benzo-[5,6]cyclohepta[1,2-b]pyridin-11-yl)-1-[(4-pyridinyl)acetyl]-piperidine]	1.2	40				
10		1.16 µM		CCc1cc2c(cc1Cl)C=Cc1cccnc1C2C1CCN(C(=O)Cc2ccncc2)CC1 (stereo not drawn) [Example 417]	4	18				
37	1.75 µM			COc1cnc2c(c1)CCc1cc(Cl)ccc1C2=C1CCN(C(=O)Cc2cccnc2)CC1 [Example 239, 4-(8-Chloro-3-methoxy-5,6-dihydro-11H-benzo[5,6]cyclohepta[1,2-b]pyridin-11-ylidene)-1-[(3-pyridinyl]acetyl]-piperidine]	4.6	> 50				
1.6		0.59 µM		CC(C)(C(=O)N1CCC(=C2c3ccc(Cl)cc3CCc3cc(Br)cnc32)CC1)c1ccc[n+]([O-])c1 [Example 411-A]	0.7	> 25				
		0.17 µM and 0.14 µM and 0.122 µM and 0.118 µM and 0.178 µM		CN1CCC(CC(=O)N2CCN(C3c4ccc(Cl)cc4CCc4cc(Br)cnc43)CC2)CC1 (stereo not drawn) [Example 425-O]		6.25				tox (10)
12.5				CC(C)(C(=O)N1CCN(C2c3ccc(Cl)cc3CCc3cccnc32)CC1)c1cccnc1 (stereo not drawn) [Example 198]	6.1	> 50				
			37	O=C(Cc1ccncc1)N1CCC(=C2c3ccc(Cl)cc3CCc3ccc[n+]([O-])c32)CC1 [230 (5.105)]			> 20	> 50		
< 3.1				O=C(Cc1ccncc1)N1CCC(=C2c3ccc(Br)cc3CCc3cccnc32)CC1 [181 (5.48)]	1.1	> 50				
6.25				O=C(Cc1ccncc1)N1CCC(C2c3ccc(Cl)cc3C=Cc3cccnc32)CC1 (stereo not drawn) [Example 269]	0.69	12.5				

SMILES	IC50 ([2]; Homo sapiens) [µM]	IC50 [3, 5]	IC50 ([3]; enzyme inhibition)	IC50 [2] [µM]	IC50 ([1]; Primates, COS) [µM]	IC50 ([4]; Homo sapiens, Fibroblast) [µM]	IC50 [1] [µM]	IC50 [4] [µM]	IC50 ([1]; listed as 285 (5.153)) [µM]	Toxicity in COS cells at the concentration in parentheses ([1]; (10) μM)
CC(C)(C)C(=O)N1CCC(=C2c3ccc(Cl)cc3CCc3cccnc32)CC1 [Example 53]		1.5 µM		25			> 13	> 50		
O=C(Cc1ccncc1)N1CCN(C2c3ccc(Cl)cc3CCc3cc(Br)cnc32)CC1 (stereo not drawn) [Example 426]			0.012 µM		0.38	25		> 12.5		
